What follows are compounds tested against T1, h-GABAA α1β2γ1 (Homo sapiens, UniProt P14867+Q8N1C3) (assay: Radioligand binding assay, [3H]RO7239181 competition, HEK293F membranes).
T1 construct: expressed in transfected cells; host or cells: HEK293F cells (ThermoFisher R79007), membranes
T1 sequence (P14867 28-456): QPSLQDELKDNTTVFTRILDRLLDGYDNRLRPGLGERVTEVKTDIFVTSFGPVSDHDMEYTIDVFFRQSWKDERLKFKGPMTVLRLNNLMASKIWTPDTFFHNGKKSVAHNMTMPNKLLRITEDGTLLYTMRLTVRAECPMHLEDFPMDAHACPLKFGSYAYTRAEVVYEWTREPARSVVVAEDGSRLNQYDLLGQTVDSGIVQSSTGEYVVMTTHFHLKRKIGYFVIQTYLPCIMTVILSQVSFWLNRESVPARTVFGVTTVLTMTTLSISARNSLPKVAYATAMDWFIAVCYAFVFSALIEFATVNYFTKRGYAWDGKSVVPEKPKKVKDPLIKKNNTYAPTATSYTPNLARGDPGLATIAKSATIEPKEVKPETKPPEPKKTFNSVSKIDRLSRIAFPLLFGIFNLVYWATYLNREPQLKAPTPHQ
T1 sequence (P47870 25-512 partner limits assumed): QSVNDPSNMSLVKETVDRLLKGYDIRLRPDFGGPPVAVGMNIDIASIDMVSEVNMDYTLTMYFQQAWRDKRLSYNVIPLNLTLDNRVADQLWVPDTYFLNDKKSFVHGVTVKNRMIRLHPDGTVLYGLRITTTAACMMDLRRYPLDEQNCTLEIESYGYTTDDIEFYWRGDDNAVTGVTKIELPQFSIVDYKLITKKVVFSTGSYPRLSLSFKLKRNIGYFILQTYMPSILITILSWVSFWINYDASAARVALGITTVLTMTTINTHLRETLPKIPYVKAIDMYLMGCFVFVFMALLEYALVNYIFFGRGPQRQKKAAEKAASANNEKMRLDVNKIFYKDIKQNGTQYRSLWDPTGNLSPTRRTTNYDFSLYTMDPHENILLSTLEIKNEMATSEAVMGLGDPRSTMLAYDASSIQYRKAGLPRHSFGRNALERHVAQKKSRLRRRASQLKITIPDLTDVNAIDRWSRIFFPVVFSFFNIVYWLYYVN
T1 sequence (Q8N1C3 36-465): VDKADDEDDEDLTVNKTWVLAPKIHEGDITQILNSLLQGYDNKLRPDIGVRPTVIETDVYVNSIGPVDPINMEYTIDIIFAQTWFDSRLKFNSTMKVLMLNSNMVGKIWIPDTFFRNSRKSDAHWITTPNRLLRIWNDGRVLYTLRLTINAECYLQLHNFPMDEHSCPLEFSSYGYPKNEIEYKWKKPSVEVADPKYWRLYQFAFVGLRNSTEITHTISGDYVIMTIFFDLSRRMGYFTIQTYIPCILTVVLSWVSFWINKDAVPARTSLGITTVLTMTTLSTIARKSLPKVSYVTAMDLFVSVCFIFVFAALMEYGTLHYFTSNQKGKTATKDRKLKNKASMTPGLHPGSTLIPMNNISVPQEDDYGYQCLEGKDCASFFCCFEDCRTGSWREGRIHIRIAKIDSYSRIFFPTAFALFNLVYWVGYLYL
Protocol: The affinity of compounds at GABAA γ1 subunit-containing receptors was measured by competition for [^3H]RO7239181 (67.3 Ci/mmol; Roche) binding to membranes from HEK293F cells (ThermoFisher R79007) expressing human (transiently transfected) receptors of composition […], α2β2γ1, α1β2γ1.
Harvested pellets from HEK293F cells expressing the different GABAA receptor subtypes were resuspended in Mannitol Buffer pH 7.2-7.4 (Mannitol 0.29M, Triethylamine 10 mM, Acetic acid 10 mM, EDTA 1 mM plus protease inhibitors (20 tablets Complete, Roche Diagnostics Cat. No. 05 056 489 001 per liter)), washed two times and then resuspended at 1:10 to 1:15 dilution in the same buffer. Cell disruption was performed by stirring the suspension in a Parr vessel #4637 at 435 psi for 15 minutes, and then the suspensions were centrifuged at 1000×g for 15 minutes at 4° C. (Beckman Avanti J-HC; rotor JS-4.2). The supernatant (S1) was transferred in a 21 Schott flask and the pellet (P1) was resuspended with Mannitol Buffer up to 175 ml. The resuspended pellet was transferred into a 250 ml Corning centrifugal beaker and centrifuged at 1500×g for 10 minutes at 4° C. (Beckman Avanti J-HC; rotor JS-4.2). The supernatant (S1) was then transferred in the 21 Schott flask and the pellet was discarded. The supernatants (S1) were centrifuged in 500 ml Beckman polypropylene centrifugal beaker at 15′000×g for 30 minutes at 4° C. (Beckman Avanti J-20 XP; rotor JLA-10.500). The pellet (P2) was resuspended with Mannitol Buffer 1:1 and frozen at −80° C. The supernatant (S2) was centrifuged in 100 ml Beckman polypropylene centrifugal tubes at 48000×g for 50 minutes at 4° C. (Beckman Avanti J-20 XP; rotor JA-18). The supernatant (S3) was discarded and the pellet (P3) was resuspended with 1:1 Mannitol Buffer. The P2 and P3 protein concentration was determined with the BIORAD Standard assay method with bovine serum albumin as standard and measured on the NANO-Drop 1000. The membrane suspension was aliquots (500 μl per tube) and stored at −80° C. until required. Membrane homogenates were resuspended and polytronised (Polytron PT1200E Kinematica AG) in Potassium Phosphate 10 mM, KCl 100 mM binding buffer at pH 7.4 to a final assay concentration determined with a previous experiment.
Assays were incubated to equilibrium for 1 hour at 4° C. and then, membranes were filtered onto unifilter (96-well white microplate with bonded GF/C filters preincubated 20-50 minutes in 0.3% Polyethylenimine) with a Filtermate 196 harvester (Packard BioScience) and washed 4 times with cold Potassium Phosphate 10 mM pH 7.4, KCl 100 mM binding buffer. After drying, filter-retained radioactivity was detected by liquid scintillation counting. Ki values were calculated using Excel-Fit (Microsoft) and are the means of two determinations.

| SMILES | Ki |
| --- | --- |
| Cc1nnc2n1-c1ccc(Br)c(Cl)c1C(c1c(F)cccc1F)=NC2 [Example 1, 8-bromo-7-chloro-6-(2,6-difluorophenyl)-1-methyl-4H-[1,2,4]triazolo[4,3-a][1,4]benzodiazepine] | 11.3 nM |
| Fc1ccccc1C1=NCc2nnc(C3CC3)n2-c2ccc(Br)c(Cl)c21 [Example 2, 8-bromo-7-chloro-1-cyclopropyl-6-(2-fluorophenyl)-4H-[1,2,4]triazolo[4,3-a][1,4]benzodiazepine] | 77.5 nM |
| Fc1ccccc1C1=NCc2nnc(-c3cccnn3)n2-c2ccc(Br)c(Cl)c21 [Example 3, 8-bromo-7-chloro-6-(2-fluorophenyl)-1-pyridazin-3-yl-4H-[1,2,4]triazolo[4,3-a][1,4]benzodiazepine] | 26.1 nM |
| Cc1nnc2n1-c1ccc(Cl)c(Cl)c1C(c1ccccc1F)=NC2 [Example 4, 7,8-dichloro-6-(2-fluorophenyl)-1-methyl-4H-[1,2,4]triazolo[4,3-a][1,4]benzodiazepine] | 103 nM |
| Cc1nnc2n1-c1ccc(Cl)c(Cl)c1C(c1c(F)cccc1F)=NC2 [Example 5, 7,8-dichloro-6-(2,6-difluorophenyl)-1-methyl-4H-[1,2,4]triazolo[4,3-a][1,4]benzodiazepine] | 8.2 nM |
| Cc1nnc2n1-c1ccc(C3CC3)c(Cl)c1C(c1c(F)cccc1F)=NC2 [Example 6, 7-chloro-8-cyclopropyl-6-(2,6-difluorophenyl)-1-methyl-4H-[1,2,4]triazolo[4,3-a][1,4]benzodiazepine] | 237 nM |
| Fc1cccc(F)c1C1=NCc2nncn2-c2ccc(Br)c(Cl)c21 [Example 7, 8-bromo-7-chloro-6-(2,6-difluorophenyl)-4H-[1,2,4]triazolo[4,3-a][1,4]benzodiazepine] | 9.1 nM |
| Fc1ccccc1C1=NCc2nncn2-c2ccc(Br)c(Cl)c21 [Example 8, 8-bromo-7-chloro-6-(2-fluorophenyl)-4H-[1,2,4]triazolo[4,3-a][1,4]benzodiazepine] | 43.8 nM |
| O=c1[nH]nc2n1-c1ccc(Cl)c(Cl)c1C(c1c(F)cccc1F)=NC2 [Example 9, 7,8-dichloro-6-(2,6-difluorophenyl)-2,4-dihydro-[1,2,4]triazolo[4,3-a][1,4]benzodiazepin-1-one] | 7.3 nM |
| Fc1ccccc1C1=NCc2nnc(-c3cccnn3)n2-c2ccc(Cl)c(Cl)c21 [Example 10, 7,8-dichloro-6-(2-fluorophenyl)-1-pyridazin-3-yl-4H-[1,2,4]triazolo[4,3-a][1,4]benzodiazepine] | 25.8 nM |
| Fc1cccc(F)c1C1=NCc2nnc(C3CCOCC3)n2-c2ccc(Cl)c(Cl)c21 [Example 11, 7,8-dichloro-6-(2,6-difluorophenyl)-1-tetrahydropyran-4-yl-4H-[1,2,4]triazolo[4,3-a][1,4]benzodiazepine] | 60.3 nM |
| Fc1cccc(F)c1C1=NCc2nnc(-c3ccncn3)n2-c2ccc(Cl)c(Cl)c21 [Example 12, 7,8-dichloro-6-(2,6-difluorophenyl)-1-pyrimidin-4-yl-4H-[1,2,4]triazolo[4,3-a][1,4]benzodiazepine] | 17.6 nM |
| O=c1[nH]nc2n1-c1ccc(Br)c(Cl)c1C(c1c(F)cccc1F)=NC2 [Example 13, 8-bromo-7-chloro-6-(2,6-difluorophenyl)-2,4-dihydro-[1,2,4]triazolo[4,3-a][1,4]benzodiazepin-1-one] | 6.2 nM |
| Fc1cccc(F)c1C1=NCc2nnc(-c3cccnn3)n2-c2ccc(Cl)c(Cl)c21 [Example 14, 7,8-dichloro-6-(2,6-difluorophenyl)-1-pyridazin-3-yl-4H-[1,2,4]triazolo[4,3-a][1,4]benzodiazepine] | 5.2 nM |
| Fc1cccc(F)c1C1=NCc2nncn2-c2ccc(Cl)c(Cl)c21 [Example 15, 7,8-dichloro-6-(2,6-difluorophenyl)-4H-[1,2,4]triazolo[4,3-a][1,4]benzodiazepine] | 11.5 nM |
| Cc1ccc2c(c1Cl)C(c1c(F)cccc1F)=NCc1n[nH]c(=O)n1-2 [Example 16, 7-chloro-6-(2,6-difluorophenyl)-8-methyl-2,4-dihydro-[1,2,4]triazolo[4,3-a][1,4]benzodiazepin-1-one] | 22.7 nM |
| Cc1ccc2c(c1Cl)C(c1c(F)cccc1F)=NCc1nncn1-2 [Example 17, 7-chloro-6-(2,6-difluorophenyl)-8-methyl-4H-[1,2,4]triazolo[4,3-a][1,4]benzodiazepine] | 47.7 nM |
| Fc1ccccc1C1=NCc2nnc(-c3ccncn3)n2-c2ccc(Cl)c(Cl)c21 [Example 18, 7,8-dichloro-6-(2-fluorophenyl)-1-pyrimidin-4-yl-4H-[1,2,4]triazolo[4,3-a][1,4]benzodiazepine] | 54.1 nM |
| COCCc1nnc2n1-c1ccc(Cl)c(Cl)c1C(c1c(F)cccc1F)=NC2 [Example 19, 7,8-dichloro-6-(2,6-difluorophenyl)-1-(2-methoxyethyl)-4H-[1,2,4]triazolo[4,3-a][1,4]benzodiazepine] | 43.9 nM |
| Cc1ccc2c(c1Cl)C(c1c(F)cccc1F)=NCc1nnc(C)n1-2 [Example 20, 7-chloro-6-(2,6-difluorophenyl)-1,8-dimethyl-4H-[1,2,4]triazolo[4,3-a][1,4]benzodiazepine] | 37.1 nM |
| CC(F)(F)c1ccc2c(c1Cl)C(c1c(F)cccc1F)=NCc1nncn1-2 [Example 21, 7-chloro-8-(1,1-difluoroethyl)-6-(2,6-difluorophenyl)-4H-[1,2,4]triazolo[4,3-a][1,4]benzodiazepine] | 90.5 nM |
| Cc1nnc2n1-c1ccc(C(C)(F)F)c(Cl)c1C(c1c(F)cccc1F)=NC2 [Example 22, 7-chloro-8-(1,1-difluoroethyl)-6-(2,6-difluorophenyl)-1-methyl-4H-[1,2,4]triazolo[4,3-a][1,4]benzodiazepine] | 68.7 nM |
| Fc1cccc(F)c1C1=NCc2nncn2-c2ccc(C(F)F)c(Cl)c21 [Example 23, 7-chloro-8-(difluoromethyl)-6-(2,6-difluorophenyl)-4H-[1,2,4]triazolo[4,3-a][1,4]benzodiazepine] | 63.9 nM |
| Cc1nnc2n1-c1ccc(Br)c(Cl)c1C(c1ncccc1F)=NC2 [Example 24, 8-bromo-7-chloro-6-(3-fluoro-2-pyridyl)-1-methyl-4H-[1,2,4]triazolo[4,3-a][1,4]benzodiazepine] | 43.6 nM |
